How the values were obtained:
MCF7 [1] = test: Anticancer activity against human MCF7 cells assessed as reduction of cell growth; assay type: functional, cell-based
[2] = Anticancer activity against human MCF-10A cells assessed as reduction of cell growth; assay type: toxicity, cell-based
A-431 = test: Anticancer activity against human A-431 cells; assay type: functional, cell-based
PC-3 = test: Anticancer activity against human PC-3 cells assessed as reduction of cell growth; assay type: functional, cell-based
MCF7 [3] = test: Anticancer activity against human MCF7 cells at 10 uM by MTT assay relative to control; assay type: functional
L02 = test: Antiproliferative activity against human L02 cells by MTT assay; assay type: functional, cell-based
HepG2 [4] = test: Antiproliferative activity against human HepG2 cells by MTT assay; assay type: functional, cell-based
HeLa [5] = test: Cytotoxicity against human HeLa cells incubated for 24 hrs by MTT assay; assay type: functional, cell-based
HeLa [6] = test: Cytotoxicity against human HeLa cells incubated for 48 hrs by MTT assay; assay type: functional, cell-based
[7] = Inhibition of cell proliferation in human MCF-10A cells at 50 uM by MTT colorimetric cell viability assay relative to control; assay type: toxicity, cell-based
MCF7 [8] = test: Inhibition of cell proliferation in human MCF7 cells; assay type: functional, cell-based
[9] = target: T1, Amine oxidase [flavin-containing] A (Rattus norvegicus, UniProt P21396); test: Inhibition of rat brain MAO-A relative to control; assay type: tissue-based
T1 sequence (P21396 whole entry): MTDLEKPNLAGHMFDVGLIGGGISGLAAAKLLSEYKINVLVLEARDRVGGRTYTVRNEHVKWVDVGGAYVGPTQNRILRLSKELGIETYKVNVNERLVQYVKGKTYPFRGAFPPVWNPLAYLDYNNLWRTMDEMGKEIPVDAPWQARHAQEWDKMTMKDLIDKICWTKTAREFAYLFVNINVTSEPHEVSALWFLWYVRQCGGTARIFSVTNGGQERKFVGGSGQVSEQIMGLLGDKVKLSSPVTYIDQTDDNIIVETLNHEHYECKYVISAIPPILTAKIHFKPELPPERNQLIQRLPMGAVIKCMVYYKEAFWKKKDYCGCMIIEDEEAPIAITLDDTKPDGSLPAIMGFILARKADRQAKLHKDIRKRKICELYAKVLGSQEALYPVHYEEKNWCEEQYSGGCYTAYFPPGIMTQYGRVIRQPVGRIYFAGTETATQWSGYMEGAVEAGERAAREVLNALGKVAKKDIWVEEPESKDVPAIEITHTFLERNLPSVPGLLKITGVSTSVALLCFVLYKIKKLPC

Sarcoma-180 = test: Antitumor activity against mouse Sarcoma-180 xenografted in mouse model assessed tumor growth inhibition relative to control; assay type: functional; parameters: scale not given: the % may be the effect or the level left
Ehrlich = test: Antitumor activity against mouse Ehrlich ascites carcinoma xenografted in mouse model assessed tumor growth inhibition relative to control; assay type: functional; parameters: scale not given: the % may be the effect or the level left
SW480 = test: Antiproliferative activity against human SW480 cells measured after 48 hrs by MTT assay; assay type: functional, cell-based; conditions: SW480, 48 h
HeLa [10] = test: Antiproliferative activity against human HeLa cells measured after 48 hrs by MTT assay; assay type: functional, cell-based
A549 [11] = test: Antiproliferative activity against human A549 cells measured after 48 hrs by MTT assay; assay type: functional, cell-based; conditions: A549, 48 h
[12] = Antiproliferative activity against human […] cells measured after 48 hrs by MTT assay; assay type: functional, cell-based
MCF7 [13] = test: Antiproliferative activity against human MCF7 cells measured after 48 hrs by MTT assay; assay type: functional, cell-based; conditions: MCF7, 48 h
HL-60 = test: Antiproliferative activity against human HL-60 cells measured after 48 hrs by MTT assay; assay type: functional, cell-based; conditions: HL-60, 48 h
HepG2 [14] = test: Antiproliferative activity against human HepG2 cells measured after 48 hrs by MTT assay; assay type: functional, cell-based; conditions: HepG2, 48 h
HT-29 = test: Antiproliferative activity against human HT-29 cells measured after 48 hrs by MTT assay; assay type: functional, cell-based; conditions: HT-29, 48 h
HepG2 [15] = test: Anticancer activity against human HepG2 cells at 200 microg/ml measured after 48 hrs relative to control; assay type: functional
4T1 = test: Anticancer activity against mouse 4T1 cells at 200 microg/ml measured after 48 hrs relative to control; assay type: functional
MCF7 [16] = test: Antiproliferative activity against human MCF7 cells assessed as inhibition of cell viability; assay type: functional, cell-based
K562 = test: Antiproliferative activity against human K562 cells assessed as inhibition of cell viability; assay type: functional, cell-based
MCF7 [17] = test: Anticancer activity against human MCF7 cells assessed as inhibition of cell growth by MTT assay; assay type: functional, cell-based
HeLa [18] = test: Anticancer activity against human HeLa cells assessed as inhibition of cell growth by MTT assay; assay type: functional, cell-based
A549 [19] = test: Anticancer activity against human A549 cells assessed as inhibition of cell growth by MTT assay; assay type: functional, cell-based

**Q.** Which IC50 (MCF7 [1]) does the source give for CC1(C)CC(=O)C2C(C1)N(c1ccccc1F)C(=O)C21c2ccccc2NC2C(=O)CC(C)(C)CC21 (centres undefined) here?
**A.** 7.82 µM

**Q.** And the IC50 [2]?
**A.** 36.3 µM

**Q.** And the IC50 (A-431)?
**A.** 52.1 µM

**Q.** What about the IC50 (PC-3) of the same molecule?
**A.** 84.9 µM

**Q.** Which inhibition at 10 µM (MCF7 [3]) does the source give for COC(=O)c1[nH]nc2c1C1(C(=O)N(C(C)=O)c3ccccc31)C(C#N)=C(N)O2 (centres undefined) here?
**A.** 23.2%

**Q.** Which results are given for O=C1C(=O)C2C(N=C3N=NNN3C23C(=O)Nc2ccc(F)cc23)c2ccccc21 (centres undefined)?
**A.** IC50 (L02): 58.9 µM; IC50 (HepG2 [4]): 2.86 µM

**Q.** Which results are given for Cc1cn(CN2C(=O)C3(c4ccccc42)C(C(=O)c2ccccc2)C3C(=O)c2ccc(Cl)cc2)nn1 (centres undefined)?
**A.** IC50 (HeLa [5]): 9.3 µM; IC50 (HeLa [6]): 4.5 µM

**Q.** With COc1cc(OC)c(C2NCCC23C(=O)Nc2ccccc23)cc1OC (centres undefined) as the molecule, how does the inhibition at 50 µM [7] read?
**A.** 0.8%

**Q.** What about the EC50 (MCF7 [8]) of the same molecule?
**A.** 4.01 µM

**Q.** What does the source list for CCn1c(SCC(=O)Nc2ccccc2)nc2c(c1=O)C1(CCCCC1)Cc1ccccc1-2?
**A.** inhibition (INH) [9]: 32%; Activity (Sarcoma-180): 55%; Activity (Ehrlich): 75%

**Q.** Which IC50 (SW480) does the source give for CC(=O)O[C@H]1CC[C@]2(C)C3CC[C@@]4(C)C(CC[C@H]4[C@H](C)CCCC(C)C)C3C[C@@]3(N=C4C=CC=CN4/C3=N\c3ccccc3)C2C1 (some centres undefined) here?
**A.** 5 µM

**Q.** What about the IC50 (HeLa [10]) of the same molecule?
**A.** 3.56 µM

**Q.** What about the IC50 (A549 [11]) of the same molecule?
**A.** 5.39 µM

**Q.** What about the IC50 [12] of the same molecule?
**A.** 5.35 µM

**Q.** What about the IC50 (MCF7 [13]) of the same molecule?
**A.** 4.31 µM

**Q.** What about the IC50 (HL-60) of the same molecule?
**A.** 4.46 µM

**Q.** And the IC50 (HepG2 [14])?
**A.** 2.43 µM

**Q.** What about the IC50 (HT-29) of the same molecule?
**A.** 5.04 µM

**Q.** Which results are given for Cc1cn(CN2C(=O)C3(c4ccccc42)C(C(=O)c2ccc(F)cc2)C3C(=O)c2ccc(Cl)cc2)nn1 (centres undefined)?
**A.** IC50 (HeLa [5]): 11.2 µM; IC50 (HeLa [6]): 6.3 µM

**Q.** With O=C1Nc2ccccc2C12CCNC2c1ccccc1 (centres undefined) as the molecule, how does the inhibition at 50 µM [7] read?
**A.** 0.08%

**Q.** And the EC50 (MCF7 [8])?
**A.** 3.53 µM

**Q.** Which results are given for CC(C)CCC[C@@H](C)[C@@H]1CCC2C3C[C@@]4(N=C5C=CC(Cl)=CN5/C4=N\Cc4ccccc4)C4C[C@@H](Cl)CC[C@]4(C)C3CC[C@@]21C (some centres undefined)?
**A.** IC50 (SW480): 2.33 µM; IC50 (HeLa [10]): 5.23 µM; IC50 (A549 [11]): 3.43 µM; IC50 [12]: 4.67 µM; IC50 (MCF7 [13]): 3.24 µM; IC50 (HL-60): 5.17 µM; IC50 (HepG2 [14]): 5.37 µM; IC50 (HT-29): 4.63 µM

**Q.** Which IC50 (SW480) does the source give for CC(C)CCC[C@@H](C)[C@@H]1CCC2C3C[C@@]4(N=C5C=CC=CN5/C4=N\c4ccccc4)C4CCCC[C@]4(C)C3CC[C@@]21C (some centres undefined) here?
**A.** 5.21 µM

**Q.** And the IC50 (HeLa [10])?
**A.** 3.84 µM

**Q.** And the IC50 (A549 [11])?
**A.** 2.62 µM

**Q.** And the IC50 [12]?
**A.** 5.38 µM

**Q.** What about the IC50 (MCF7 [13]) of the same molecule?
**A.** 4.8 µM

**Q.** What about the IC50 (HL-60) of the same molecule?
**A.** 5.07 µM

**Q.** What about the IC50 (HepG2 [14]) of the same molecule?
**A.** 4.24 µM

**Q.** And the IC50 (HT-29)?
**A.** 3.1 µM

**Q.** Which “inhibition (INH)” value [9] does the source give for CCn1c(SCC(=O)Nc2cccc(C(F)(F)F)c2)nc2c(c1=O)C1(CCCCC1)Cc1ccccc1-2 here?
**A.** 15%

**Q.** And the Activity (Sarcoma-180)?
**A.** 42%

**Q.** What about the Activity (Ehrlich) of the same molecule?
**A.** 70%

**Q.** For COc1ccc(C(=O)[C@H]2[C@]3(C(=O)Nc4ccc(Cl)cc43)[C@@H]3c4ccccc4CCN3[C@@]23C(=O)Nc2ccc(Cl)cc23)cc1, which inhibition at 200 µg/mL (HepG2 [15]) is on record?
**A.** 70.1%

**Q.** What about the inhibition at 200 µg/mL (4T1) of the same molecule?
**A.** 23.2%

**Q.** Which IC50 (MCF7 [1]) does the source give for COc1cccc(N2C(=O)C3(c4ccccc4NC4C(=O)CC(C)(C)CC43)C3C(=O)CC(C)(C)CC32)c1 (centres undefined) here?
**A.** 9.62 µM

**Q.** And the IC50 [2]?
**A.** 48.1 µM

**Q.** What about the IC50 (A-431) of the same molecule?
**A.** 55.6 µM

**Q.** What about the IC50 (PC-3) of the same molecule?
**A.** 86.1 µM

**Q.** With O=C1/C(=C/c2c(Cl)cccc2Cl)CCCC12[C@@H]1CCCN1[C@@]1(C(=O)Nc3ccccc31)[C@H]2c1c(Cl)cccc1Cl (some centres undefined) as the molecule, how does the IC50 (MCF7 [16]) read?
**A.** 19.4 µM

**Q.** What about the IC50 (K562) of the same molecule?
**A.** 16.6 µM

**Q.** For CCOC(=O)c1[nH]nc2c1C1(C(=O)N(C(C)=O)c3ccccc31)C(C#N)=C(N)O2 (centres undefined), which inhibition at 10 µM (MCF7 [3]) is on record?
**A.** 15.7%

**Q.** What does the source list for O=C1/C(=C/c2ccc(Br)cc2)CCCC12[C@@H]1CCCN1[C@@]1(C(=O)Nc3ccccc31)[C@H]2c1ccc(Br)cc1 (some centres undefined)?
**A.** IC50 (MCF7 [16]): 15.5 µM; IC50 (K562): 15.8 µM

**Q.** What does the source list for O=C1Nc2ccc(Br)cc2C12c1c(c3ccccc3oc1=O)N(c1ccc(N3CCOCC3)c(F)c1)c1c2c(=O)oc2ccccc12?
**A.** IC50 (MCF7 [17]): 9.56 µM; IC50 (HeLa [18]): 18.1 µM; IC50 (A549 [19]): 22.2 µM

Reference: ChEMBL document CHEMBL5233269, “Anticancer potential of spirocompounds in medicinal chemistry: A pentennial expedition” (Eur J Med Chem, 2021)
